In patent US20020132792A1, “Aryl-substituted indirubin derivatives, their production and use” (Schering AG, priority 2000, published 2002):

Tests used:
CDK2/CycE = target: T1, CDK2/CycE (Homo sapiens, UniProt P24941); assay: CDK2/CycE kinase assay; type: biochemical; conditions: recombinant CDK2/CycE-GST, histone IIIS substrate, 0.5 μm ATP, 15 minutes at 22° C.
T1 construct: GST; purchased Dr. Dieter Marmé, Klinik für Tumorbiologie, Freiburg (obtained from an outside laboratory); host or cells: baculovirus-infected Sf9 insect cells
Description: Recombinant CDK2- and CycE-GST-fusion proteins, purified from baculovirus-infected insect cells (Sf9), were obtained by Dr. Dieter Marmé, Klinik für Tumorbiologie [Clinic for Tumor Biology], Freiburg. Histone IIIS, which was used as a kinase substrate, was purchased by the Sigma Company.
CDK2/CycE (50 ng/measuring point) was incubated for 15 minutes at 22° C. in the presence of various concentrations of test substances (0 μm, as well as within the range of 0.01-100 μm) in assay buffer [50 mmol of tris/HCl pH 8.0, 10 mmol of MgCl2, 0.1 mmol of Na ortho-vanadate, 1.0 mmol of dithiothreitol, 0.5 μm of adenosine triphosphate (ATP), 10 μg/measuring point of histone IIIS, 0.2 μCi/measuring point of ^33P-gamma ATP, 0.05% NP40, 12.5% dimethyl sulfoxide]. The reaction was stopped by adding EDTA solution (250 mmol, pH 8.0, 14 μl/measuring point).
From each reaction batch, 10 μl was applied to P30 filter strips (Wallac Company), and non-incorporated ^33P-ATP was removed by subjecting the filter strips to three washing cycles for 10 minutes each in 0.5% phosphoric acid. After the filter strips were dried for one hour at 70° C., the filter strips were covered with scintillator strips (MeltiLex™ A, Wallac Company) and baked for one hour at 90° C. The amount of incorporated ^33P (substrate phosphorylation) was determined by scintillation measurement in a gamma-radiation measuring device (Wallac).

MCF-7 cells = assay: Proliferation assay (crystal violet); type: cell-based; conditions: MCF7, 96 h, MCF-7 human tumor cells, 4 days incubation
Description: Cultivated human tumor cells (as indicated) were flattened out at a density of 5000 cells/measuring point in a 96-well multititer plate in 200 μl of the corresponding growth medium. After 24 hours, the cells of one plate (zero-point plate) were colored with crystal violet (see below), while the medium of the other plates was replaced by fresh culture medium (200 μl), to which the test substances were added in various concentrations (0 μm, as well as in the range of 0.01-30 μm; the final concentration of the solvent dimethyl sulfoxide was 0.5%). The cells were incubated for 4 days-in the presence of test substances. The cell proliferation was determined by coloring the cells with crystal violet: the cells were fixed by adding 20 μl/measuring point of a 11% glutaric aldehyde solution for 15 minutes at room temperature. After subjecting the fixed cells to three washing cycles with water, the plates were dried at room temperature. The cells were colored by adding 100 μL/measuring point of a 0.1% crystal violet solution (pH was set at 3 by adding acetic acid). […] The extinction was determined by photometry at a wavelength of 595 nm. The change of cell growth, in percent, was calculated by standardization of the measured values to the extinction values of the zero-point plate (=0%) and the extinction of the untreated (0 μm) cells (=100%).

melting point | IC50 (CDK2/CycE) | SMILES | IC50 (MCF-7 cells)
> 300 °C | > 5000 nM | COc1ccc(-c2ccc3c(c2)/C(=C2/Nc4ccccc4C2=O)C(=O)N3)cc1 [Example 1.0, 5-(4-Methoxyphenyl)-indirubin] | 
 | 1000 nM | O=C1Nc2ccc(-c3ccccc3)cc2C1=C1Nc2ccccc2C1=O [Example 1.1] | 
 | 600 nM | O=C1Nc2ccc(-c3cc(C(F)(F)F)cc(C(F)(F)F)c3)cc2C1=C1Nc2ccccc2C1=O [Example 1.3] | 
 | 30 nM | O=C1Nc2ccc(-c3ccc(Cl)cc3)cc2C1=C1Nc2ccccc2C1=O [Example 1.4] | 500 nM
 | 300 nM | CC(C)(C)c1ccc(-c2ccc3c(c2)C(=C2Nc4ccccc4C2=O)C(=O)N3)cc1 [Example 1.5] | 

SMILES | melting point | IC50 (CDK2/CycE) | IC50 (MCF-7 cells)
CC(C)(C)[Si](C)(C)Oc1cccc(-c2ccc3c(c2)C(=C2Nc4ccccc4C2=O)C(=O)N3)c1 [Example 1.2] |  | 150 nM | 4000 nM
